Source: US20240335462A1, “SULFUR/PHOSPHORUS-CONTAINING ARYL COMPOUND AND APPLICATION THEREOF” (MEDSHINE DISCOVERY INC., priority 2021, published 2024)

Tests used:
[1] = tested on: acute colitis induced by CD40 antibody; test: Mouse model of acute colitis induced by CD40 antibody; assay type: in vivo, CB-17 SCID mice; parameters: DAI score: scale not given here; conditions: mean
Procedure: The purpose of this experiment was to evaluate the alleviating effect of the compound on colitis in a mouse model induced by CD40 antibody.
CB-17 SCID mice were randomly divided into groups. Each group consisted of 6 mice, which received an intraperitoneal injection (IP) of CD40 antibody (80 μg per mouse) on Day 0. The positive control drug IL-12 P40 antibody and the test compound were administered from Day-1 to Day 4, with Day 5 being the endpoint of the experiment. The positive control drug IL-12 P40 antibody was administered via intraperitoneal injection (IP) once every three days; the test compound was administered by gavage (PO) twice a day (BID).
The compounds were all prepared into a clear solution with 10% DMSO+10% solutol+80% (10% HP-3-CD) as a solvent for PO (oral gavage) administration. Administration volume parameters: 10 mL/kg based on the body weight of the mice.
IL-12 P40 antibody and the test compound were administered from Day-1 to Day 4. On Day 0, 30 minutes after administration, 200 μL of CD40 antibody (4 mg/kg) was intraperitoneally injected, while mice in the blank control group were intraperitoneally injected with 200 μL of DPBS. Body weight was recorded and feces were scored during the experiment.
Fecal scoring involved placing each mouse individually in a specially designed cage for about 10 minutes for scoring. The fecal scoring criteria were as per Table 27.
If blood is observed in the feces or around the anus, occult blood testing is not conducted. For the remaining mice without visible bloody stools, feces are collected for occult blood testing. Occult blood scoring is based on the assumption that the daily test results for the mice in the Normal group are 0. Each day, the fecal samples of four mice from the blank control group are observed for the time taken to develop color on the occult blood test strips. The shortest time required for color development in the feces of these four mice is set as the daily threshold. If the feces develop color before this time point and the color intensifies within 1 to 2 minutes, a score of 2 is assigned.
The body weight and Disease Activity Index (DAI) scores of the animals were recorded daily to assess the disease progression in each group and the effect of the test compound on the disease. The daily Disease Activity Index (DAI) score consists of three parts, with specific criteria referenced in Table 27.

[2] = tested on: IL-12/IL-18-induced IFN-γ secretion by mouse immune cells; test: IL-12/IL-18-induced IFN-γ secretion in mice (serum ELISA); assay type: in vivo, C57BL/6J mice
Procedure: The purpose of this experiment was to evaluate the inhibitory effect of the compound on IL-12/IL-18-induced IFN-γ secretion by immune cells in mice. The IFN-γ protein level in serum samples of mice treated with the compound was detected using the enzyme-linked immunosorbent assay (ELISA) method.
This experiment was conducted twice.
The compounds were all prepared into a clear solution with 10% DMSO+10% solutol+80% (10% HP-β-CD) as a solvent for PO (oral gavage) administration. The frequency of administration was once daily (QD).
• a) According to the grouping, the mice were administered by gavage (P0) with either the compound formulation or solvent control. • b) One hour later, each mouse received an intraperitoneal injection of IL-12 (0.01 μg per mouse) or PBS buffer. • c) One hour after IL-12 administration, each mouse received an intraperitoneal injection of IL-18 (1 μg per mouse) or PBS buffer. • d) Blood was collected three hours after IL-18 administration, and serum was separated.
• a) Prior to use, all reagents were mixed thoroughly to avoid foaming. • b) The number of strips required was determined based on the number of experimental wells (blanks and standards). Duplicate tests were performed for samples (including standards) and blanks. • c) Sample addition: 100 μL/well of the diluted Cytokine standard was added to the standard wells, 100 μL/well of the sample was added to the sample wells, and 100 μL/well of Dilution buffer R (1×) was added to the blank control wells. • d) Detection antibody addition: 50 μL/well of Biotinylated antibody working solution was added. After mixing, the plate was covered with a sealing film and incubated at 37° C. for 90 minutes. • e) Plate washing: The liquid was discarded from the wells, then 300 μL/well of 1× Washing buffer working solution was added, and allowed to stand for 1 minute before the liquid was discarded from the wells. […]
The plate was covered with a sealing film and incubated at 37° C. for 30 minutes. • g) Plate washing: Step 5 was repeated. • h) Color development: 100 μL/well of TMB was added, then the plate was incubated at 37° C. in the dark for 5 to 30 minutes, and the reaction was terminated depending on the intensity of the color (dark blue) in the well. […] Dual wavelengths were recommended for reading the plate, specifically measuring at a measurement wavelength of 450 nm and a reference wavelength of 610 to 630 nm simultaneously.
The expression level of each sample was calculated based on the standard curve, and statistical analysis of the results for each group was performed, including mean and standard error of the mean (SEM). […] All data were analyzed using GraphPad Prism 6.02.

[3] = single PO administration 3 mg/kg
[4] = single PO administration 10 mg/kg

| SMILES | DAI score ([1]; 50 mg/kg PO BID, Day 0) | Weight change rate (%) ([1]; 50 mg/kg PO BID, Day 0) | DAI score ([1]; 50 mg/kg PO BID, Day 1) | Weight change rate (%) ([1]; 50 mg/kg PO BID, Day 1) | DAI score ([1]; 50 mg/kg PO BID, Day 2) | Weight change rate (%) ([1]; 50 mg/kg PO BID, Day 2) | DAI score ([1]; 50 mg/kg PO BID, Day 3) | Weight change rate (%) ([1]; 50 mg/kg PO BID, Day 3) | DAI score ([1]; 50 mg/kg PO BID, Day 4) | Weight change rate (%) ([1]; 50 mg/kg PO BID, Day 4) | DAI score ([1]; 50 mg/kg PO BID, Day 5) | Weight change rate (%) ([1]; 50 mg/kg PO BID, Day 5) | DAI score ([1]; 50 mg/kg PO BID, Day -1) | Weight change rate (%) ([1]; 50 mg/kg PO BID, Day -1) | Serum IFN-γ inhibition rate (%) [2, 3] | Serum IFN-γ inhibition rate (%) [2, 4] | other results |
| --- | --- | --- | --- | --- | --- | --- | --- | --- | --- | --- | --- | --- | --- | --- | --- | --- | --- |
| CNC(=O)c1nnc(NC(=O)C2CC2)cc1Nc1cccc(-c2ncc(S(=N)(=O)C(C)C)cn2)c1OC.Cl (single isomer, unassigned) [Hydrochloride of WX-011A] | 0.33 | 100.63% | 1.00 | 99.54% | 1.83 | 97.69% | 0.67 | 100.43% | 0.50 | 100.96% | 1.17 | 99.34% | 0.00 | 100.00% | – | – | DAI score ([1]; 30 mg/kg PO BID, Day 0): 0.17; Weight change rate (%) ([1]; 30 mg/kg PO BID, Day 0): 100.60%; DAI score ([1]; 30 mg/kg PO BID, Day 1): 1.00; Weight change rate (%) ([1]; 30 mg/kg PO BID, Day 1): 100.01%; DAI score ([1]; 30 mg/kg PO BID, Day 2): 2.17; Weight change rate (%) ([1]; 30 mg/kg PO BID, Day 2): 95.93%; DAI score ([1]; 30 mg/kg PO BID, Day 3): 0.83; Weight change rate (%) ([1]; 30 mg/kg PO BID, Day 3): 98.85%; DAI score ([1]; 30 mg/kg PO BID, Day 4): 0.50; Weight change rate (%) ([1]; 30 mg/kg PO BID, Day 4): 99.69%; DAI score ([1]; 30 mg/kg PO BID, Day 5): 1.00; Weight change rate (%) ([1]; 30 mg/kg PO BID, Day 5): 97.07%; DAI score ([1]; 30 mg/kg PO BID, Day -1): 0.00; Weight change rate (%) ([1]; 30 mg/kg PO BID, Day -1): 100.00% |
| CNC(=O)c1nnc(NC(=O)C2CC2)cc1Nc1cccc(-c2ncc(S(=N)(=O)C(C)C)cn2)c1OC (single isomer, unassigned) [WX-011A] | – | – | – | – | – | – | – | – | – | – | – | – | – | – | 64% | 96% | – |
| CNC(=O)c1cnc(NC(=O)C2CC2)cc1Nc1cccc(-c2ccc(S(=O)(=O)C(C)C)cn2)c1OC.O=S(=O)(O)O [Sulfate of WX-020] | 0.33 | 100.48% | 1.17 | 98.37% | 2.67 | 95.22% | 0.83 | 100.73% | 0.33 | 100.81% | 0.50 | 100.44% | 0.00 | 100.00% | – | – | DAI score ([1]; 100 mg/kg PO BID, Day 0): 0.33; Weight change rate (%) ([1]; 100 mg/kg PO BID, Day 0): 100.78%; DAI score ([1]; 100 mg/kg PO BID, Day 1): 1.33; Weight change rate (%) ([1]; 100 mg/kg PO BID, Day 1): 99.88%; DAI score ([1]; 100 mg/kg PO BID, Day 2): 1.67; Weight change rate (%) ([1]; 100 mg/kg PO BID, Day 2): 97.14%; DAI score ([1]; 100 mg/kg PO BID, Day 3): 0.50; Weight change rate (%) ([1]; 100 mg/kg PO BID, Day 3): 99.65%; DAI score ([1]; 100 mg/kg PO BID, Day 4): 0.33; Weight change rate (%) ([1]; 100 mg/kg PO BID, Day 4): 101.16%; DAI score ([1]; 100 mg/kg PO BID, Day 5): 0.33; Weight change rate (%) ([1]; 100 mg/kg PO BID, Day 5): 100.90%; DAI score ([1]; 100 mg/kg PO BID, Day -1): 0.00; Weight change rate (%) ([1]; 100 mg/kg PO BID, Day -1): 100.00% |
| CNC(=O)c1cnc(NC(=O)C2CC2)cc1Nc1cccc(-c2ccc(S(=O)(=O)C(C)C)cn2)c1OC [WX-020] | – | – | – | – | – | – | – | – | – | – | – | – | – | – | 40% | 86% | – |
